Measured values as given in patent publication US10798942B2, “Abiotic stress tolerance” (SYNGENTA PARTICIPATIONS AG, priority 2016, dated 2020).

System: rice plants
Test: Multi-year analysis for 2015-2016 of field trials (17 trials)
Type: in vivo, Oryza sativa L.
Details: 2015-2016, 17 trials; for Thousand grain weight (g/1000 seed): UTC 17.01; for Empty spikelets (number per 12 rice hills): UTC 5636; for Yield at 14% MC (kg/ha): UTC 6318
Description: Rice (Oryza sativa L.) of the local varieties ADT43, ADT45 and NK5251 were mechanically transplanted at four plants per hill with a plant spacing of 16 cm and a row spacing of 30 cm. All trials were performed in good level of water management. Fertilizer was applied in accordance with the best local practice across the trial area. Commercial treated seeds (no neonicotinoids as seed treatments) were used. Weed control was according to the best local practice in order to provide excellent weed control. Foliar fungicides and insecticides were applied according to common practice (no products that contain neonicotinoids or strobilurins). The trial design was a randomized bloc design. Plot size was 40 m^2 (4 m width [12 rows] by 10 m row length). Each trial had four replicates. In total, eleven trials were conducted. The compound of formula (Ia) was applied at a rate of 10 g ai/ha with small-plot hand-held boom sprayer. Application of the compound was as broadcast foliar spray in close proximity to leaf/canopy surface (25-40 cm distance from the crop). The used spray volumes were between 250 L/ha and 500 L/ha. Application was done either at panicle initiation (BBCH 30), at panicle formation (BBCH 32), at spikelet differentiation (BBCH 35), at meiosis (BBCH 39) or at heading (BBCH 51). In some experiments, the compound was applied twice (2×10 g ai/ha) at consecutive growth stages (i.e., BBCH 30+32, BBCH 32+35, BBCH 35+39, and BBCH 39+51). Tolerance to heat stress was assessed by measuring the following yield components: number of panicles per area, number of grains per panicle, percentage of ripened (filled) grains, number of tillers per area, percentage of productive tillers, grain yield per area at 14% moisture and thousand grain weight (TGVV). Further trials were conducted in the Tamil Nadu rice production area (India) in 2016 using the protocol as described above using rice variety ADT45, with treatment timings of panicle initiation (BBCH 30), panicle formation (BBCH 32), spikelet differentiation (BBCH 35) and meiosis (BBCH 39) only. The compound of formula (Ia) was applied at a rate of 10 g Al/ha. Grain yield was measured at 14% moisture content (MC).

COc1cccc(Nc2nc(F)nc3[nH]cnc23)c1 [formula (Ia)]
Empty spikelets, % change compared to UTC (BBCH 30 at application): −12.5%
Thousand grain weight, % change compared to UTC (BBCH 30 at application): +1.3%
Yield at 14% MC, % change compared to UTC (BBCH 30 at application): +4.1%
Thousand grain weight (g/1000 seed) (BBCH 30 at application): 17.24 g/1000 seed
Empty spikelets (number per 12 rice hills) (BBCH 30 at application): 4927 number per 12 rice hills
Yield at 14% MC (kg/ha) (BBCH 30 at application): 6583 kg/ha
Empty spikelets, % change compared to UTC (BBCH 32 at application): −9.2%
Thousand grain weight, % change compared to UTC (BBCH 32 at application): +1.4%
Yield at 14% MC, % change compared to UTC (BBCH 32 at application): +6.5%
Thousand grain weight (g/1000 seed) (BBCH 32 at application): 17.25 g/1000 seed
Empty spikelets (number per 12 rice hills) (BBCH 32 at application): 5115 number per 12 rice hills
Yield at 14% MC (kg/ha) (BBCH 32 at application): 6727 kg/ha
Empty spikelets, % change compared to UTC (BBCH 35 at application): −7.6%
Thousand grain weight, % change compared to UTC (BBCH 35 at application): +1.3%
Yield at 14% MC, % change compared to UTC (BBCH 35 at application): +6.3%
Thousand grain weight (g/1000 seed) (BBCH 35 at application): 17.23 g/1000 seed
Empty spikelets (number per 12 rice hills) (BBCH 35 at application): 5206 number per 12 rice hills
Yield at 14% MC (kg/ha) (BBCH 35 at application): 6713 kg/ha
Empty spikelets, % change compared to UTC (BBCH 39 at application): −8.3%
Thousand grain weight, % change compared to UTC (BBCH 39 at application): +1.4%
Yield at 14% MC, % change compared to UTC (BBCH 39 at application): +5.2%
Thousand grain weight (g/1000 seed) (BBCH 39 at application): 17.25 g/1000 seed
Empty spikelets (number per 12 rice hills) (BBCH 39 at application): 5170 number per 12 rice hills
Yield at 14% MC (kg/ha) (BBCH 39 at application): 6643 kg/ha
